Seven compounds from ChEMBL document CHEMBL1155890, “Synthesis of scyllo-inositol derivatives and their effects on amyloid beta peptide aggregation” (Bioorg Med Chem, 2008) can be followed below.

A short description of experiment [1]: Effect on amyloid beta 42 aggregation assessed as inhibition of fiber formation at 5 mM.
The nature of experiment [2]: Effect on amyloid beta 42 aggregation assessed as inhibition of fiber formation at 3 mM.

The source made the active and inactive calls. The rule behind the calls is not given here.

Consider `O[C@@H]1C[C@H](O)[C@@H](O)C[C@H]1O`, for which the result in experiment [1] was inactive.

With `O[C@@H]1[C@@H](O)[C@H](F)[C@@H](O)[C@H](O)[C@H]1F`, the outcome in experiment [1] was inactive.

Take `CO[C@H]1[C@H](O)[C@@H](O)[C@H](O)[C@@H](O)[C@@H]1O`: the result in experiment [1] was inactive.

With `O[C@@H]1[C@@H](O)[C@H](O)[C@@H](Cl)[C@H](O)[C@H]1O`, the outcome in experiment [1] was inactive.

Regarding `O[C@@H]1[C@@H](O)[C@H](O)C[C@H](O)[C@H]1O`, in experiment [1], the result was inactive.

As for `O[C@@H]1[C@@H](O)[C@H](Cl)[C@@H](O)[C@H](O)[C@H]1Cl`, the result in experiment [1] was inactive.

Turning to `O[C@H]1[C@H](O)[C@@H](O)[C@H](O)[C@@H](O)[C@@H]1O`, in experiment [2], the outcome was Active.
